According to patent publication US10363234B2, “Antihypertensive agent” (WAKUNAGA PHARMACEUTICAL CO., LTD., priority 2015, dated 2019):

How the values were obtained:
Format in all cases: in vivo, rat
[1] = test system: Spontaneous Hypertensive Rats (SHR); assay: Repeated oral administration of S1PC to spontaneous hypertensive rats for 10 weeks, systolic blood pressure (Test Example 3); settings: SHR/Izm rats, 6.5 mg/kg oral once a day for 10 weeks, two-way ANOVA
Procedure: Effect of Repeated Oral Administration of S-1-Propenylcysteine (S1PC) on Spontaneous Hypertensive Rats (SHR)
(§1) One group of ten 8-week-old male SHR/Izm rats purchased from Japan SLC, Inc. (Hamamatsu-shi) was preliminarily bred for two weeks. During preliminary breeding, handling was performed on the rats, and the rats were bred in a constant environment (temperature; 23±1° C., humidity; 50±10%, light-dark cycle; 12 hours (light period; 7 to 19 o'clock)) and freely fed with an artificial diet (CE-2; CLEA Japan, Inc.) and sterilized tap water.
(§2) The administration was performed by forced oral administration using a disposable feeding needle and the fluid volume to be administered was 10 mL per 1 kg of SHR weight. […]
(§3) Before the repeated oral administration (0 hour), and every other week after the administration up to 10 weeks, the systolic blood pressure at the base of each tail was measured without anesthesia using a non-preheating, non-invasive blood pressure monitor (MK-2000ST, Muromachi Kikai Co., Ltd.). Note that the measurement was performed five times per individual, the upper and lower values were eliminated, and an average of the remaining measured values was defined as a systolic blood pressure value of the individual. […]

[2] = test system: Spontaneous Hypertensive Rats (SHR); assay: Single oral administration of S1PC and SAC to spontaneous hypertensive rats, systolic blood pressure (Test Example 2); settings: SHR/Izm rats, single oral dose 1 mg/kg, S1PC effect 3 hours after the administration, Bonferroni test
Procedure: Effect of Administering S-1-Propenylcysteine (S1PC) and S-Allylcysteine (SAC) to Spontaneous Hypertensive Rats (SHR)
as §1, with “eight” for “ten”, “three” for “two”
as §2
as §3, with “start of” for “repeated oral”, “hour)” for “hour),”, “and” for “and every other week”, “(3, 6, and 24 hours),” for “up to 10 weeks,”

[3] = test system: Spontaneous Hypertensive Rats (SHR); assay: Single oral administration of S1PC to spontaneous hypertensive rats, systolic blood pressure (Test Example 1); settings: SHR/Izm rats, single oral dose 6.5 mg/kg, 1.5 to 6 hours after the administration, t-test
Procedure: Effect of Administering S-1-Propenylcysteine (S1PC) to Spontaneous Hypertensive Rats (SHR)
as §1, with “eight” for “ten”
(§4) The administration was performed by forced oral administration using a disposable feeding needle and the fluid volume to be administered was 10 mL per 1 kg of SHR weight. As a sample to be administered, about 15 mg of S-1-propenylcysteine produced in Production Example 2 (a cis- and trans-mixture) was precisely weighed and dissolved in 15 mL of purified water. […]
as §3, with “start of” for “repeated oral”, “hour)” for “hour),”, “and” for “and every other week”, “(1.5, 3, 6, and 24 hours),” for “up to 10 weeks,”

Normotensive Rats (WKY) = assay: Single oral administration of S1PC to normotensive rats, systolic blood pressure (Test Example 4); settings: WKY/Izm rats, single oral dose 6.5 mg/kg, measured 3, 6 and 24 hours
Procedure: Effect of Administering S-1-Propenylcysteine (S1PC) to Normotensive Rats (WKY)
as §1, with “four” for “ten”, “WKY/Izm” for “SHR/Izm”
as §4, with “WKY” for “SHR”
as §3, with “start of” for “repeated oral”, “hour)” for “hour),”, “and” for “and every other week”, “(3, 6, and 24 hours),” for “up to 10 weeks,”

| Structure (SMILES) | antihypertensive effect (systolic blood pressure) as compared with the control group [1] | antihypertensive effect (systolic blood pressure) as compared with the control group [2] | antihypertensive effect (systolic blood pressure) as compared with the control group [3] | antihypertensive effect (systolic blood pressure) on normotensive rats (Normotensive Rats (WKY)) |
| --- | --- | --- | --- | --- |
| CC=CSCC(N)C(=O)O (centres unmarked) [S-1-propenylcysteine] | significant antihypertensive effect | significant antihypertensive effect | significant antihypertensive effect | no significant antihypertensive effect |
| C=CCSC[C@H](N)C(=O)O [SAC, S-allylcysteine, reference compound] |  | no significant antihypertensive effect |  |  |
